Test results published in patent publication EP4656642A1, “ESTROGEN RECEPTOR PROTEOLYSIS TARGETING CHIMERA COMPOUND AND USE THEREOF” (GAN & LEE PHARM CO., LTD, priority 2023, dated 2024).
Where a chain is given by its changes, count along the chain named. Like-named read-outs stand apart in the source and are kept apart here.

Legend:
Assay type in all cases: cell-based
LNCAP FGC cells = assay: Inhibition of LNCAP cell proliferation (WST-8, 96 hours)
Experimental: Test Example 8 Inhibitory activity of the compounds disclosed in the present disclosure on LNCAP cell proliferation
LNCAP FGC cells (ATCC, CLR-1740) were cultured in RPMI 1640 (ATCC, 30-2001) complete medium containing 10% fetal bovine serum (Hyclone, SH30406.05). On the first day of the experiment, LNCaP FGC cells were inoculated in 96-well plates at a density of 5,000 cells/well using RPMI 1640 medium containing 10% fetal bovine serum, with 100µL of cell suspension per well, and placed in a cell culture incubator with 5% CO2 at 37°C overnight. […] The compound concentrations were prepared in complete […] medium and serially diluted 5-fold starting from 10 µM, resulting in a total of nine concentration points. Wells receiving 100 µL of RPMI 1640 medium containing 10% FBS only were used as controls. The plates were incubated at 37°C in a 5% CO2 incubator for 96 hours.

VCaP cells = assay: Inhibition of proliferation of VCaP cells (WST-8, 168 hours)
Experimental: Test Example 7 Inhibitory activity of the compounds disclosed in the present disclosure on the proliferation of VCaP cells
VCaP cells (ATCC, CRL-2876) were cultured in DMEM (Gibco, 11995-065) complete medium containing 10% fetal bovine serum (Hyclone, SH30406.05). On the first day of the experiment, VCaP cells were inoculated in 96-well plates at a density of 15,000 cells/well using DMEM medium containing 10% fetal bovine serum, with 100µL of cell suspension per well, and placed in a cell culture incubator with 5% CO2 at 37°C overnight. […] The compound concentrations were prepared in complete DMEM medium and serially diluted 5-fold starting from 10 µM, resulting in a total of nine concentration points. Wells receiving 100 µL of DMEM medium containing 10% FBS only were used as blank controls. The plates were incubated at 37°C in a 5% CO2 incubator for 168 hours.

AR protein [1] = target: T1, AR protein (Homo sapiens, UniProt P10275, T878A); assay: Degradation of AR protein in LNCAP cells (Western blot, 8 h); conditions: LNCaP FGC cells
T1 construct: host or cells: LNCaP FGC
T1 sequence (P10275 1-920 T878A): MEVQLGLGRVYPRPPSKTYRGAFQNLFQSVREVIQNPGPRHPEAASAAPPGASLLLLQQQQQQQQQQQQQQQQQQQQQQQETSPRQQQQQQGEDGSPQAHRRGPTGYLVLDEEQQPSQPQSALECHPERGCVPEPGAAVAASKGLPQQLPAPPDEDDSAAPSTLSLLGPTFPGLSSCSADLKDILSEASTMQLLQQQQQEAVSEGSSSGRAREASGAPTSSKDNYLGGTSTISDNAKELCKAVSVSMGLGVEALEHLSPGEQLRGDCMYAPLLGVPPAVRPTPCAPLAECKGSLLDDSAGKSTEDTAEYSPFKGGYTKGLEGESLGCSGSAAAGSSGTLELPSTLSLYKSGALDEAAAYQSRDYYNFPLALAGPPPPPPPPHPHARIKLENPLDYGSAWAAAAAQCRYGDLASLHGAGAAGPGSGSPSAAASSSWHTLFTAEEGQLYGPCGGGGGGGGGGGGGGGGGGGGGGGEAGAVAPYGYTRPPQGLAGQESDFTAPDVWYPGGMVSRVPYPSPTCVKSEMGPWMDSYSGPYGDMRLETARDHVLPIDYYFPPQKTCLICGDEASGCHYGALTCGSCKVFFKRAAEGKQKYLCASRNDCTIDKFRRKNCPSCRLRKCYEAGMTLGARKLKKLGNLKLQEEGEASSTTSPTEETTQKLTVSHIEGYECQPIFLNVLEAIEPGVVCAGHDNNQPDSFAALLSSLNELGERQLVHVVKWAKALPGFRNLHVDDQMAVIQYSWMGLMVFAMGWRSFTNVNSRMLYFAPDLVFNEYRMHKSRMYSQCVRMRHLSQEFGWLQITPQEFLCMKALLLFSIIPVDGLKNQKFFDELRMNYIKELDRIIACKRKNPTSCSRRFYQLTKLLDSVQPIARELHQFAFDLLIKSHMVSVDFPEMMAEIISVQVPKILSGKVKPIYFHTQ
Experimental: After 8 h, the culture medium was discarded, and the cells were washed with PBS. After the cells were washed with PBS, RIPA lysis buffer containing 1% Protease Inhibitor Cocktail was added, and the total protein extract was obtained after lysis and centrifugation, and the protein concentration in the extract was detected by BCA method. Protein electrophoresis was carried out by SDS-PAGE, after which the proteins were transferred to PVDF (Millipore Sigma Catalog No. PSRP010R5) membrane by 100V constant voltage electrotransfer for 60 min, and the PVDF membrane was placed in 1×TBST solution with 5% milk and blocked at room temperature for 1h. […] The primary antibody solution was discarded, and the PVDF membrane was washed three times with 1× TBST for 5 min each. […] The secondary antibody solution was discarded, and the PVDF membrane was washed three times with 1× TBST for 5 min each. Western membrane imaging was performed using a dual-color infrared laser imaging system (Licor catalog number Odyssey CLX). Bands were analyzed in grayscale using the software Image Studio. For each sample, GAPDH protein bands were detected as internal reference. The degradation rates of the AR protein for the compounds and positive control sample were calculated based on the grayscale of the protein bands.

AR protein [2] = target: T2, AR protein (Homo sapiens, UniProt P10275); conditions: 8 h
T2 construct: host or cells: VCaP
T2 sequence (P10275 1-920): T1 sequence (P10275 1-920 T878A) with A878T
Experimental: Test Example 9 Degradation activity of the compounds disclosed in the present disclosure against AR protein in VCAP cells (cell source: ATCC)
AR-positive human prostate cancer cells, VCaP, were inoculated in six-well microplates (Thermo Catalog No. 140675) in DMEM (GiBco Catalog No. 11995-065) containing 10% FBS (Hyclone Catalog No. SH30406.05) at a density of 3 × 10^5 cells/well. […] After 8 h, the culture medium was discarded, and cells were washed with PBS, then RIPA lysis buffer containing 1% Protease Inhibitor Cocktail was added, and the total protein extract was obtained after lysis and centrifugation, and the protein concentration in the extract was detected by BCA method. Protein electrophoresis was carried out by SDS-PAGE, after which the protein was transferred to PVDF (Millipore Sigma catalog number PSRP010R5) membrane by 100V constant-voltage electrotransfer for 60 min, and the PVDF membrane was placed in 1×TBST solution with 5% milk and blocked at room temperature for 1 h. The primary antibody solution (Anti-Androgen receptor, Cell Signaling Technology Catalog No. 5153S; 1: 2000 dilution) was prepared and incubated overnight at 4°C. The primary antibody solution was discarded, and the PVDF membrane was washed three times with 1× TBST for 5 min each. The secondary antibody solution (Thermo catalog number SA5-35571; 1:7500 dilution) was prepared, and the secondary antibody dilution was incubated at room temperature for 1h. The secondary antibody solution was discarded, and the PVDF membrane was washed three times with 1×TBST for 5 min each. Western membrane imaging was performed using a dual-color infrared laser imaging system (Licor catalog number Odyssey CLX). Bands were analyzed in grayscale using the software Image Studio. For each sample, GAPDH protein bands were detected as internal reference. The degradation rates of the AR protein for the compounds and positive control sample were calculated based on the grayscale of the protein bands.

[3] = LNCAP FGC cells, 96 hours, WST-8

For `COc1cc(O[C@H]2CC[C@H](NC(=O)c3ccc(N4CCC(CN5CCC6(CC5)COc5c6ccc6c5C(=O)N(C5CCC(=O)NC5=O)C6)(OC)CC4)nn3)CC2)ccc1C#N` (relative stereo) [2-264], the IC50 (LNCAP FGC cells; [3]) was 33.6 µM, the IC50 (VCaP cells; VCaP cells, 168 hours, WST-8) was 0.003 µM and the “Degradation rates of the AR protein in LNCAP cells, 10 nM (%)” value (shortened to “Degradation rates … 10 nM (%)”) (AR protein [1]) was 52%. The “Degradation rates of the AR protein in LNCAP cells, 100 nM (%)” value (shortened to “Degradation rates … 100 nM (%)”) (AR protein [1]) was 71%.

For `N#Cc1ccc(O[C@H]2CC[C@H](NC(=O)c3ccc(N4CCC(CN5CCC6(CC5)COc5c6ccc6c5C(=O)N(C5CCC(=O)NC5=O)C6)CC4)nn3)CC2)cc1Cl` (relative stereo) [2-313], the “Degradation rates of the AR protein in VCAP cells, 0.5 nM” value (AR protein [2]) was 78%, the “Degradation rates of the AR protein in VCAP cells, 5 nM” value (AR protein [2]) was 89% and the IC50 (LNCAP FGC cells; [3]) was 34.3 µM. The “Degradation rates … 10 nM (%)” value (AR protein [1]) was 75% and the “Degradation rates … 100 nM (%)” value (AR protein [1]) was 79%.

With `COc1cc(O[C@H]2CC[C@H](NC(=O)c3ccc(N4CCC(CN5CCC6(CC5)COc5c6ccc6c5C(=O)N(C5CCC(=O)NC5=O)C6)CC4)nn3)CC2)ccc1C#N` (relative stereo) [2-314] the “Degradation rates of the AR protein in VCAP cells, 0.5 nM” value (AR protein [2]) was 86%, the “Degradation rates of the AR protein in VCAP cells, 5 nM” value (AR protein [2]) was 91% and the IC50 (LNCAP FGC cells; [3]) was 42.4 µM. For the same compound, the “Degradation rates … 10 nM (%)” value (AR protein [1]) was 69% and the “Degradation rates … 100 nM (%)” value (AR protein [1]) was 76%.

For `COC1(CN2CCC3(CCc4cc5c(cc4O3)C(=O)N(C3CCC(=O)NC3=O)C5)CC2)CCN(c2ccc(N3CCC4(CC3)C[C@H](C)N(c3ccc(C#N)c(Cl)c3)C4)cc2)CC1` (stereo partly drawn) [2-99], the IC50 (LNCAP FGC cells) was 2.71 µM and the IC50 (VCaP cells) was 0.007 µM.

For `C[C@H]1CC2(CCN(c3ccc(N4CCC(C)(CN5CCC6(CCc7cc8c(cc7O6)C(=O)N(C6CCC(=O)NC6=O)C8)CC5)CC4)cc3)CC2)CN1c1ccc(C#N)c(Cl)c1` (stereo partly drawn) [2-101], the IC50 (LNCAP FGC cells) was 5.08 µM and the IC50 (VCaP cells) was 0.01 µM.
